Experimental data reported in patent US9492508B2, “Parathyroid hormone analogs and uses thereof” (The General Hospital Corporation, priority 2010, dated 2016).
Square brackets hold non-standard residues; d marks the D form. Peptide text beside a SMILES is read from it. hArg = N=C(N)NCCCC[C@H](N)C(=O)O; Aib = CC(C)(N)C(=O)O

Assays:
[1] = Blood Ca++ responses in mice; type: in vivo, mice (C57 BL/6); conditions: 5 nmol/kg s.c., 4, 6, 8 and 24 hours
Protocol: Blood Ca^++ responses in mice were also assayed. Mice (C57 BL/6) were injected subcutaneously with either vehicle or the indicated ligand to give a final dose of 5 nmol/kg body weight, and blood was withdrawn via the tail at times after injection and assessed for Ca^++ concentration using a Bayer Rapid Lab model 348 blood analyzer. […] A similar experiment using 10 nmol/kg by intravenous injection was also conducted with similar results (FIGS. 8C and 8D).

MC3T3-E1 cells [2] = experiment: cAMP response following ligand wash-out in MC3T3-E1 cells; type: cell-based, mouse; conditions: 100 nM ligand 5 min, then wash-out; FIGS. 7A, 7B
Protocol: Cells were treated at room temperature with vehicle or the indicated ligand (100 nM) for five minutes; for each ligand duplicate wells were used to obtain the initial (maximum cAMP values); in these wells, cells were co-incubated with ligand and IBMX. After five minutes of initial treatment, the buffer was removed, and, for the initial wells, the reactions were terminated by addition of 50 mM HCl. In the other wells, the cells were rinsed three times with buffer, and incubated in buffer for varying times, as indicated on the abscissa; after which the buffer was replaced by a buffer containing IBMX, and the cells were incubated for another five minutes. After that, the buffer was removed and the reactions were terminated by addition of 50 mM HCl. The cAMP contents of the HCl lysates were then determined by RIA.

human PTHR1 (RG) = target: T1, human PTHR1 (RG) (Homo sapiens, UniProt Q03431); experiment: Competition binding, RG conformation of human PTHR1 (COS-7 membranes); conditions: mean of 3 experiments, read-out: Binding human PTHR1 IC50 (Log M) RG (converted)
T1 construct: expressed in transfected cells; host or cells: COS-7 cells (membranes)
T1 sequence (Q03431 27-593): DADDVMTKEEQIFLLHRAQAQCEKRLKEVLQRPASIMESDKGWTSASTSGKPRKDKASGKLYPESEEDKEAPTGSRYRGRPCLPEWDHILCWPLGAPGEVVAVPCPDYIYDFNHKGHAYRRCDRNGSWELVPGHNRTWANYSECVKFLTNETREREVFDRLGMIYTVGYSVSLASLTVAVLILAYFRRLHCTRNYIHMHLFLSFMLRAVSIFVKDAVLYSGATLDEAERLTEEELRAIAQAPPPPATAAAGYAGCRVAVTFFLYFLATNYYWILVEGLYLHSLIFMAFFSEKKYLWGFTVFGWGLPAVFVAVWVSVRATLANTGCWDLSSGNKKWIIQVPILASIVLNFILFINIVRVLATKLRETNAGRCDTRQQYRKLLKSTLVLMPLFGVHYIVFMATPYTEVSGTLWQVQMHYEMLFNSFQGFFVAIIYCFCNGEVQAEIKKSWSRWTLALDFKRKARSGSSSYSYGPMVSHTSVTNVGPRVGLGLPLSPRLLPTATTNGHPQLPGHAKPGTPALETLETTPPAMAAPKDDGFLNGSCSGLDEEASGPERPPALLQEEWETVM
Protocol: (§1) Briefly, the R^0 form of the receptor can be favored by addition of the non-hydrolyzable nucleotide analog GTPγS. The RG form can be favored, for example, by co-transfection of cells with a negative dominant Gαs subunit. […] Data are means of four experiments, each performed in duplicate. Curves were fit to the data using Graph-Pad Prism 4.0.
(§2) Here, competition binding assays for the R^0 and RG PTHR1 conformation were performed in membranes prepared from transfected COS-7 cells, as described by Dean et al., Mol Endocrinol 22:156-66, 2008. Data are means of three experiments, each performed in duplicate. Curves were fit to the data using Graph-Pad Prism 4.0.

MC3T3-E1 cells [3] = experiment: cAMP RIA in intact MC3T3-E1 cells; type: cell-based, mouse; conditions: 30 min, room temperature, IBMX
Protocol: cAMP stimulating activity of these polypeptides was also assessed, using two different methods: a radioimmunoassay (RIA; FIG. 2) and a cAMP responsive element fused to a luciferase gene (FIG. 3). Briefly, the RIA cAMP assays were performed in intact MC3T3-E1 cells, a mouse pre-osteoblastic cell line, in 96-well plates, as described by Okazaki et al. (Proc Natl Acad Sci USA 105:16525-30, 2008). […] The cAMP contents of the HCl lysates were then determined by RIA. Data are means of six experiments, each performed in duplicate. Curves were fit to the data using Graph-Pad Prism 4.0.

rat PTHR1 (RG) = target: T2, rat PTHR1 (RG) (Rattus norvegicus, UniProt P25961); experiment: Competition binding, RG conformation of rat PTHR1; conditions: FIG. 1B
T2 construct: expressed in transfected cells
T2 sequence (P25961 27-591): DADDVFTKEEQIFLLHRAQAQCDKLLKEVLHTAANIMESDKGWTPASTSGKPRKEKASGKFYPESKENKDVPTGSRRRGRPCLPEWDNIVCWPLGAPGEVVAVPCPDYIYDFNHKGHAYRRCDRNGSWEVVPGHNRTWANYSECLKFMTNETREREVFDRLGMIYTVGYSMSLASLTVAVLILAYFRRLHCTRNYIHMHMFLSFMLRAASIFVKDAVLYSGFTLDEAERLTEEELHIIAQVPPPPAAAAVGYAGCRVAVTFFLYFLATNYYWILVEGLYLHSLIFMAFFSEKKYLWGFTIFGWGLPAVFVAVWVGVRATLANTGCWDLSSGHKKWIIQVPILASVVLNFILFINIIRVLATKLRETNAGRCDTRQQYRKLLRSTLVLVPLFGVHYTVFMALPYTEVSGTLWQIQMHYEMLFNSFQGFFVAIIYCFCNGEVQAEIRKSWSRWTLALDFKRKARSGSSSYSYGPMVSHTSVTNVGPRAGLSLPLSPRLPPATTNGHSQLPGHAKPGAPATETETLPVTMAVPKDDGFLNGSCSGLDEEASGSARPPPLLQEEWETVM
Description: as §1

rat PTHR1 (R0) = target: T3, rat PTHR1 (R0) (Rattus norvegicus, UniProt P25961); experiment: Competition binding, R0 conformation of rat PTHR1; conditions: R0 conformation; read-out: Binding rat PTHR1 IC50 nM R0
T3 sequence (P25961 27-591): T2 sequence (P25961 27-591)
Description: as §1

[4] = Solubility, in vitro precipitation assay (PBS pH 7.4 vs 10 mM acetic acid); type: physicochemical; conditions: pH 7.4
Protocol: The relative solubilities of SP-PTH-AAK (SEQ ID NO:4) and SP-PTH (SEQ ID NO:11) in different buffers were assessed in an in vitro precipitation assay. For each polypeptide, two vials, each containing 50 μg of lyophilized polypeptide powder, were prepared; one vial was reconstituted in 50 μl of PBS at pH 7.4; the other vial was reconstituted in 50 μl of 10 mM acetic acid (pH 2.9) to give final concentrations of 1.0 mg/ml […]. After one hour at room temperature, the vials were centrifuged at 15,000×g for 2 minutes. The supernatant was removed and the protein content assayed using the Pierce BCA assay (Thermo Fischer Scientific, Rockford, Ill.). For each polypeptide, the content of the PBS sample was expressed as percent of the content of the corresponding acetic acid sample.

human PTHR1 (R0) = target: T4, human PTHR1 (R0) (Homo sapiens, UniProt Q03431); experiment: Competition binding, R0 conformation of human PTHR1 (COS-7 membranes, 125I-PTH(1-34) tracer, GTPγS); conditions: FIG. 5A
T4 construct: expressed in transfected cells; host or cells: COS-7 cells (membranes)
T4 sequence (Q03431 27-593): T1 sequence (Q03431 27-593)
Protocol: as §1, §2

- IC50 (human PTHR1 (RG)): 0.372 nM
- EC50 (MC3T3-E1 cells [3]): 0.018 nM
- cAMP MC3T3-E1 cells EC50 (Log M) (MC3T3-E1 cells [3]; 6 experiments): −10.7 ± 0.1 Log M
- binding to RG form of rat PTHR1, comparison in words (rat PTHR1 (RG)): increased
- IC50 (rat PTHR1 (R0)): 0.7 nM
- solubility in PBS pH 7.4 (percent of acetic acid sample), in words [4]: solubility similar to hPTH(1-34)NH2
- R0 binding at human PTH receptor as compared to PTH(1-34) (human PTHR1 (R0)): enhanced R^0 binding
SMILES: CC[C@H](C)[C@H](NC(=O)[C@H](CCC(=O)O)NC(=O)[C@H](C)NC(=O)[C@@H](NC(=O)[C@H](Cc1c[nH]cn1)NC(=O)[C@@H](NC(=O)[C@H](CCC(=O)O)NC(=O)[C@H](C)NC(=O)[C@@H](NC(=O)[C@H](CC(C)C)NC(=O)[C@H](CCCCN)NC(=O)[C@H](Cc1c[nH]cn1)NC(=O)[C@H](CC(C)C)NC(=O)[C@H](Cc1ccccc1)NC(=O)[C@H](C)NC(=O)[C@H](CCCNC(=N)N)NC(=O)[C@H](CCCNC(=N)N)NC(=O)[C@H](CCCNC(=N)N)NC(=O)[C@H](C)NC(=O)[C@H](CC(=O)O)NC(=O)[C@H](CCC(N)=O)NC(=O)[C@@H](NC(=O)[C@H](Cc1c[nH]c2ccccc12)NC(=O)[C@H](CCCCN)NC(=O)[C@H](C)NC(=O)[C@H](CCCCNC(=N)N)NC(=O)[C@H](CCC(N)=O)NC(=O)[C@H](Cc1c[nH]cn1)NC(=O)[C@H](CCSC)NC(=O)[C@H](CC(C)C)NC(=O)[C@H](CCC(N)=O)NC(=O)[C@@H](NC(=O)[C@H](CCC(=O)O)NC(=O)C(C)(C)NC(=O)[C@@H](NC(=O)[C@H](C)N)C(C)C)[C@@H](C)CC)[C@@H](C)CC)[C@@H](C)CC)[C@@H](C)CC)[C@@H](C)O)C(N)=O [AIB-SP-PTH-AAK, [Ala^1,12,18,22,Aib^3,Gln^10,Har^11,Trp^14,Lys^26]PTH(1-14)/PTHrP(15-36)] (H-AV[Aib]EIQLMHQ[hArg]AKWIQDARRRAFLHKLIAEIHTAEI-NH2; N-terminus assumed)
- blood calcium levels at later time points vs PTH(1-34) or vehicle [1]: increased
- cAMP-stimulating activity after ligand wash-out (MC3T3-E1 cells [2]): maintained cAMP-stimulating activity for longer periods of time than PTH(1-34)
- cAMP MC3T3-E1 cells Emax (pmole/well) (MC3T3-E1 cells [3]): 57.9 ± 13.9 pmole/well
